Laboratory results taken from US20090209565A1, “THERAPEUTIC AGENT FOR INFLAMMATORY BOWEL DISEASE” (priority 2006, published 2009).

Tests used:
[1] = tested on: DSS-induced IBD model animals; test: Actions of improving the clinical conditions in DSS-induced IBD model; type: in vivo, mice; conditions: for Change in length of the large intestine (Ratio to the no treatment group, %): C57BL/6N mice, 3% DSS Day 0-4, drug Day 4-10, determined Day 11, control 73.4
Protocol: This test was performed according to the method described in PEDIATRIC RESEARCH, Vol. 53, No. 1, 143 to 147, 2003. In particular, mice (6-week-old, C57BL/6N Jcl, CLEA Japan, Inc.) were divided into groups of eight mice each such that average body weight was the same in each group on Day 0. […] Determination was made on the next day of the last administration of each drug (Day 11). As the evaluation index, the length of the large intestine and the rate of body weight change from the first day of the test (Day 0) to the last day of the test (Day 11) were measured.

SD rats = conditions: 2000 mg/kg single oral dose in 0.5% HPMC, five male and five female SD rats
Protocol: 2000 mg/kg of Compound (1) was suspended in 0.5% HPMC solution, and orally administered at a single dose of 10 mL/kg to five male and five female SD rats (6-week-old).

[2] = tested on: intestinal epithelial cells; test: Inhibition of apoptosis of large intestinal epithelial cells in TNBS-induced colitis; type: in vivo, mouse; conditions: TNBS-induced colitis large intestine, Giemsa staining, 1000 cells per segment; TNBS alone 40.0±3.0%
Protocol: Large intestine affected by TNBS-induced colitis was subjected to Giemsa staining to stain the nucleus, and apoptosis of the intestinal epithelial cells was investigated (FIG. 3). Cells showing cell shrinkage or nucleus fragmentation were taken as apoptoic cells. 1000 cells in each segment were observed under the microscope, and the ratio of apoptotic cells (the apoptosis induction rate) was calculated (FIG. 4).

[3] = Compound 100, prednisolone 5, 5-ASA 100 mg/kg/day

Row | SMILES | Change in length of the large intestine (Ratio to the no treatment group, %) [1, 3] [%] | weight loss (rate of body weight change from first day to determination day) ([1]; Day 0 to Day 11, printed as loss, prednisolone 5, 5-ASA 100 mg/kg/day, control loss 1.7±1.8) [%] | Rate of body weight change (%, Mean ± SE) ([1]; Day 0 to Day 11, Compound 100, prednisolone 5, 5-ASA 100 mg/kg/day, control −1.7 ± 1.8, no treatment 3.7 ± 1.5) [%] | death (SD rats) | ratio of apoptotic cells (apoptosis induction rate) [2] [%]
1 | Nc1ccc(O)c(C(=O)O)c1 [Compound 5-ASA, 5-aminosalycilic acid] | 80.3 | 5.0±0.3 | −5.0 ± 0.3 |  | 
2 | Cl.N=C1CCCN1Cc1[nH]c(=O)[nH]c(=O)c1Cl [Compound (1), 5-chloro-6-(2-iminopyrrolidin-1-yl)methyl-2,4(1H,3H)-pyrimidinedione hydrochloride] | 88.6 |  |  | no case of death | 
3 | N=C1CCCN1Cc1[nH]c(=O)[nH]c(=O)c1Cl [Compound (I), 5-chloro-6-(2-iminopyrrolidin-1-yl)methyl-2,4(1H,3H)-pyrimidinedione] | 88.6 |  |  |  | 26.0±5.0
4 | C[C@]12C=CC(=O)C=C1CC[C@@H]1[C@@H]2[C@@H](O)C[C@@]2(C)[C@H]1CC[C@]2(O)C(=O)CO [Prednisolone, prednisolone] | 93.2 |  |  |  | 
